# Assay results as given in paper PMC9178925 (Biochemical pharmacology, 2022).
# “And” between values parts separate entries of the source, which are not always exact repeats. Equal values may be shown once.
# Experiments:
# α1β2(N265S)γ2S GABAAR = α1β2(N265S)γ2S GABAAR (Rattus norvegicus, UniProt P62813+P63138, N289S); assay: Two-electrode voltage clamp, potentiation of low GABA currents in oocytes; assay type: cell-based, rat (β2 rat or human)
# α1β2γ2S GABAAR = α1β2γ2S GABAAR (Rattus norvegicus, UniProt P62813+P63138); assay type: cell-based, rat (β2 rat or human); details: 10 μM loreclezole, n = 5 oocytes
# α1β2γ2L GABAAR [1] = biological target: T1, α1β2γ2L GABAAR (Rattus norvegicus, UniProt P62813+P63138); assay: Two-electrode voltage clamp, concentration-response and mechanistic; assay type: cell-based, rat (β2 rat or human)
# α1β2γ2L GABAAR [2] = biological target: T1, α1β2γ2L GABAAR; assay: Functional competition assay
structure (smiles),measurement,setting,value
[Cl-].[Cl-].[Zn+2] [ZnCl2],change of GABA responses (positive = potentiation),α1β2(N265S)γ2S GABAAR; 10 μM ZnCl2 pre-applied 60 s then co-applied with GABA,+11 ± 1%
"Cl/C(=C\n1cncn1)c1ccc(Cl)cc1Cl [loreclezole, reference compound]",potentiation of the responses to low GABA,α1β2γ2S GABAAR,269 ± 46%
same,potentiation of the responses to low GABA,"α1β2(N265S)γ2S GABAAR; 10 μM loreclezole, n = 4 oocytes",36 ± 6%
same,EC50,α1β2γ2L GABAAR [1],3.4 ± 0.6 µM
same,Kd,α1β2γ2L GABAAR [1],7.1 ± 2 µM
same,cLor,"α1β2γ2L GABAAR [1]; 10 μM GABA, Eq. 1, n = 6 oocytes",0.251 ± 0.049 and 0.251
same,nH,"α1β2γ2L GABAAR [1]; loreclezole, 10 μM GABA, Hill equation",1.27 ± 0.41
same,potentiation of the peak response to GABA,"α1β2γ2L GABAAR [2]; 10 μM loreclezole, 0.75 μM GABA",643 ± 91%
same,enhancement of the peak response from receptors activated by R(+)-etomidate,"α1β2γ2L GABAAR [2]; 10 μM loreclezole, 1 μM R(+)-etomidate",395 ± 48%
same,PA of the peak response,α1β2γ2L GABAAR [2]; 0.2–0.5 μM GABA + 3 μM loreclezole,0.08 ± 0.05
"CC(=O)[C@H]1CC[C@H]2[C@@H]3CC[C@@H]4C[C@H](O)CC[C@]4(C)[C@H]3CC[C@]12C [pregnanolone, 1-[(1S,3aS,3bR,5aR,7R,9aS,9bS,11aS)-7-Hydroxy-9a,11a-dimethylhexadecahydro-1H-cyclopenta[a]phenanthren-1-yl]ethan-1-one, reference compound]",PA of peak response,α1β2γ2L GABAAR [2]; 2 μM pregnanolone alone,0.005 ± 0.002
